Values quoted from earlier work in EP1227812B1 (SCHERING CORPORATION, priority 1999, dated 2001).

Details: eight subjects tested, topical azatadine

Structure (SMILES): CN1CCC(=C2c3ccccc3CCc3cccnc32)CC1 [Azatadine, azatadine]
- drowsiness: drowsiness in one of the eight subjects tested
